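All cell lines were grown in 96-well plates and treated with compound for 48 hours. GI50 = concentration required for 50% inhibition of growth.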 Active and inactive are the calls of the source. Rule as the data show it: active = GI50 up to about 1.1 µM and inactive = higher.
Legend:
Test in all cases: inhibition of tumour cell growth, NCI panel, 48 h
COLO 205 = system: COLO 205
KM12 = system: KM12
NCI/ADR-RES = system: NCI/ADR-RES
SK-OV-3 = system: SK-OV-3
K562 = system: K562
HL-60 = system: HL-60
MOLT-4 = system: MOLT-4
SK-MEL-5 = system: SK-MEL-5
EKVX = system: EKVX
OVCAR-5 = system: OVCAR-5
A549 = system: A549
MDA-N = system: MDA-N
Malme-3M = system: Malme-3M
SW-620 = system: SW-620
UO-31 = system: UO-31
SR = system: SR
CCRF-CEM = system: CCRF-CEM
SK-MEL-2 = system: SK-MEL-2
DU-145 = system: DU-145

SMILES | GI50 (COLO 205) | GI50 (KM12) | GI50 (NCI/ADR-RES) | GI50 (SK-OV-3) | GI50 (K562) | GI50 (HL-60) | GI50 (MOLT-4) | GI50 (SK-MEL-5) | GI50 (EKVX) | GI50 (OVCAR-5) | GI50 (A549) | GI50 (MDA-N) | GI50 (Malme-3M) | GI50 (SW-620) | GI50 (UO-31) | GI50 (SR) | GI50 (CCRF-CEM) | GI50 (SK-MEL-2) | GI50 (DU-145)
O=C1CNNC(CSc2nc3ccc(I)cc3c(=O)n2Cc2ccccc2)=N1 | 14.1 µM (inactive) | 28.1 µM (inactive) | 26.8 µM (inactive) | 33.3 µM (inactive) | 23.7 µM (inactive) | 2.23 µM (inactive) | 31.9 µM (inactive) | 15.7 µM (inactive) | 23.6 µM (inactive) | 41.2 µM (inactive) | 38.5 µM (inactive) | 27.5 µM (inactive) | 23.9 µM (inactive) | 42.4 µM (inactive) | 1.24 µM (inactive) | 17.9 µM (inactive) | 15.4 µM (inactive) | 16.4 µM (inactive) | 22.2 µM (inactive)
N=c1c2c(=S)n(-c3ccccc3)c(=S)n(-c3ccccc3)c2nc(SCCCN2CCCCC2)n1-c1ccccc1 | 1.77 µM (inactive) | 1.82 µM (inactive) | 2.91 µM (inactive) | 2.26 µM (inactive) | 1.48 µM (inactive) | 1.81 µM (inactive) | 0.118 µM (active) | 1.86 µM (inactive) | 1.98 µM (inactive) | 11.5 µM (inactive) | 1.83 µM (inactive) | 1.77 µM (inactive) | 1.73 µM (inactive) | 2.11 µM (inactive) |  | 0.558 µM (active) | 0.413 µM (active) | 1.94 µM (inactive) | 1.66 µM (inactive)
N#Cc1c(-c2cccc(Br)c2)cc(-c2ccc(Cl)cc2)nc1N | 13.7 µM (inactive) | 20.9 µM (inactive) | 22.2 µM (inactive) | 16.8 µM (inactive) | 25.6 µM (inactive) | 31 µM (inactive) | 15.8 µM (inactive) | 15.2 µM (inactive) | 10.5 µM (inactive) | 25.5 µM (inactive) | 21 µM (inactive) | 20.5 µM (inactive) | 23.7 µM (inactive) | 18.2 µM (inactive) | 19 µM (inactive) | 19.1 µM (inactive) | 27.2 µM (inactive) | 11.6 µM (inactive) | 46 µM (inactive)
CCOC(=O)c1sc(N)nc1N1CCCC1 | > 100 µM (inactive) | > 100 µM (inactive) | > 100 µM (inactive) | > 100 µM (inactive) | > 100 µM (inactive) | > 100 µM (inactive) | > 100 µM (inactive) | > 100 µM (inactive) | > 100 µM (inactive) | > 100 µM (inactive) | > 100 µM (inactive) | > 100 µM (inactive) | > 100 µM (inactive) | > 100 µM (inactive) | > 100 µM (inactive) | > 100 µM (inactive) | > 100 µM (inactive) | > 100 µM (inactive) | > 100 µM (inactive)
S=C1N=C2C(=N1)n1c3c(c4ccccc41)CCCC23 (centres undefined) | 42 µM (inactive) | 49.2 µM (inactive) | 62.4 µM (inactive) | > 100 µM (inactive) | 33.1 µM (inactive) | 55.8 µM (inactive) | 36.6 µM (inactive) | 36.8 µM (inactive) | > 100 µM (inactive) | > 100 µM (inactive) | 29.2 µM (inactive) | 63.8 µM (inactive) | 64.9 µM (inactive) | 32.4 µM (inactive) | 60.5 µM (inactive) | 72.4 µM (inactive) | 48.6 µM (inactive) | > 100 µM (inactive) | > 100 µM (inactive)
O=[N+]([O-])c1ccc(/N=N\c2c(O)c(S(=O)(=O)O)cc3cc(S(=O)(=O)O)ccc23)cc1 | > 100 µM (inactive) |  | > 100 µM (inactive) | > 100 µM (inactive) | > 100 µM (inactive) | > 100 µM (inactive) | > 100 µM (inactive) | > 100 µM (inactive) | > 100 µM (inactive) | > 100 µM (inactive) | > 100 µM (inactive) | > 100 µM (inactive) | > 100 µM (inactive) | > 100 µM (inactive) | > 100 µM (inactive) | > 100 µM (inactive) | > 100 µM (inactive) | > 100 µM (inactive) | > 100 µM (inactive)
Cc1cc(-c2nc3cccc(F)c3s2)ccc1N | > 100 µM (inactive) | > 57.1 µM (inactive) | > 62.2 µM (inactive) | > 100 µM (inactive) | > 56.6 µM (inactive) | 13.3 µM (inactive) | 42.9 µM (inactive) | > 100 µM (inactive) | 49.5 µM (inactive) |  | > 52 µM (inactive) | > 60.3 µM (inactive) | > 100 µM (inactive) | > 87.9 µM (inactive) | > 45 µM (inactive) | 2.52 µM (inactive) | 8.04 µM (inactive) | > 85.3 µM (inactive) | > 73.5 µM (inactive)
Cc1ccc2c(O)cc(-c3ccc(Cl)s3)nc2n1 | 6.18 µM (inactive) | 0.488 µM (active) | 0.409 µM (active) | 1.83 µM (inactive) | 0.728 µM (active) | 0.203 µM (active) | 0.488 µM (active) | 0.391 µM (active) | 6.92 µM (inactive) | 2.75 µM (inactive) | 1.14 µM (inactive) | 0.136 µM (active) | 0.632 µM (active) | 0.407 µM (active) | 0.245 µM (active) | 0.15 µM (active) | 0.471 µM (active) | 5.18 µM (inactive) | 3.57 µM (inactive)

From ChEMBL document CHEMBL1201862, “PubChem BioAssay data set” (2004)
